Results on ten compounds are retold here after patent US9611273B2, “Trioxane thioacetal monomers and dimers and methods of use thereof” (THE JOHNS HOPKINS UNIVERSITY, priority 2012, dated 2017).

Test [1] relates to P. berghei malaria parasites. The test can be described thus: In vivo antimalarial efficacy, single oral dose of trioxane plus mefloquine hydrochloride in P. berghei-infected mice. The conditions noted are these: for mouse survival post infection: single oral dose 6 mg/kg trioxane plus 18 mg/kg mefloquine, or 18 mg/kg mefloquine alone; for % suppression of parasitemia (on day 3 post infection) / average survival (days) after infection: single oral dose of 6 mg/kg trioxane and 18 mg/kg mefloquine hydrochloride (control: mefloquine-HCl only), P. berghei-infected mice; for average survival (days) after infection: groups of 4. On the procedure: Using a standard protocol, see Slack, et al., 2012, 20-gram mice were infected by intraperitonial injection with P. berghei malaria parasites. One day after infection, each mouse in groups of 4 mice received a single oral dose of 6 mg/kg body weight of a trioxane thioacetal combined with 18 mg/kg of the long-lived antimalarial mefloquine hydrochloride. In all cases, parasitemia was decreased by at least 99% on day 3 post infection. Malaria-infected mice receiving no antimalarial drug died on day 6 or 7 post infection. Critically, control groups of mice receiving 6 mg/kg of the popular trioxane drug artemether (2b) plus 18 mg/kg of mefloquine, or just 18 mg/kg of mefloquine alone, survived for about 3 weeks post infection. In contrast, several of the presently disclosed trioxane thioacetals prolonged mouse survival for longer than 3 weeks, and in some instances produced partial cures; for example, 2 of 4 mice in one group (diisopropyl carbamate 3u) appeared healthy and had no detectable parasitemia on day 30 post infection.
The antimalarial efficacy of representative presently disclosed C-10 thioacetals, as well as controls, is summarized in Table 1, which includes the parasitemia levels for mice on day 3 post-infection.

In test [2] the test system is P388 leukemia. The conditions noted are these: NCI Report on NSC 369397, tested on 25 Oct. 1983; cited from earlier work.
The mark [3] stands for this setting: single oral dose 6 mg/kg plus 18 mg/kg mefloquine hydrochloride.

The structures appear in SMILES notation.

On to `C[C@H]1[C@H](SCCCOCc2ccc(F)cc2)O[C@@H]2O[C@]3(C)CC[C@H]4[C@H](C)CC[C@@H]1[C@@]24OO3` [3h, Art-10α-S(CH2)3OCH2PhF-4], for which, in test [1] (setting [3]), the “antimalarial efficacy in words” value is recorded as “most highly efficacious”. On the same count and under the same terms, the result for `C[C@H]1[C@H](SCCCOCn2nnc3ccccc32)O[C@@H]2O[C@]3(C)CC[C@H]4[C@H](C)CC[C@@H]1[C@@]24OO3` [3k, Art-10α-S(CH2)3OCH2—N-benzotriazole] reads “most highly efficacious”. As for `CC(C)N(C(=O)OCCCS[C@@H]1O[C@@H]2O[C@]3(C)CC[C@H]4[C@H](C)CC[C@@H]([C@H]1C)[C@@]24OO3)C(C)C` [3u, AMJ-Art-10α-S(CH2)3OC(O)N(iPr)2], the “antimalarial efficacy in words” value in test [1] (setting [3]) was “most highly efficacious”. Further, the “mice appearing healthy with no detectable parasitemia on day 30 post infection (partial cure)” value in test [1] (single oral dose 6 mg/kg plus 18 mg/kg mefloquine hydrochloride, group of 4 mice) is given as 2 of 4. In the case of `CO[C@H]1O[C@@H]2O[C@@]3(C)CC[C@H]4[C@H](C)CC[C@@H]([C@H]1C)[C@@]24OO3` [artemether, reference compound], the “mouse survival post infection” value in test [1] is “about 3 weeks”. With `C[C@@H]1CC[C@H]2[C@@H](C)C(=O)O[C@@H]3O[C@@]4(C)CC[C@@H]1[C@]32OO4` [artemisinin], the “activity against P388 leukemia” value in test [2] was “inactive”.

For the compound `CSC(=O)OCCCS[C@@H]1O[C@@H]2O[C@@]3(C)CC[C@H]4[C@H](C)CC[C@@H]([C@H]1C)[C@@]24OO3` [compound 109, Art-10α-S(CH2)3OC(O)SCH3], in test [1], the “% suppression of parasitemia (on day 3 post infection)” value (“% suppression of parasitemia” below) was over 99.9% and the “average survival (days) after infection” value came out at 24.5 days. Regarding `CCCSC(=O)OCCCS[C@@H]1O[C@@H]2O[C@@]3(C)CC[C@H]4[C@H](C)CC[C@@H]([C@H]1C)[C@@]24OO3` [compound 110, Art-10α-S(CH2)3OC(O)SnPr], in test [1], the “% suppression of parasitemia” value is recorded as over 99.9% and the “average survival (days) after infection” value was determined as 19.3 days.

In the case of `C[C@H]1[C@H](SCCCOC(=O)SC(C)(C)C)O[C@@H]2O[C@@]3(C)CC[C@H]4[C@H](C)CC[C@@H]1[C@@]24OO3` [compound 111, Art-10α-S(CH2)3OC(O)StBu], in test [1], the “% suppression of parasitemia” value stood at 99.9% and the “average survival (days) after infection” value turned out to be 29.8 days. Consider `CSC(=S)OCCCS[C@@H]1O[C@@H]2O[C@]3(C)CC[C@H]4[C@H](C)CC[C@@H]([C@H]1C)[C@@]24OO3` [compound 114, Art-10α-S(CH2)3OC(S)SCH3], for which, in test [1], the “% suppression of parasitemia” value turned out to be 99.9% and the “average survival (days) after infection” value stood at 22.0 days. Turning to `Cl.OC(c1cc(C(F)(F)F)nc2c(C(F)(F)F)cccc12)C1CCCCN1` (centres unmarked) [mefloquine-HCl only, mefloquine hydrochloride, reference compound], in test [1], the “mouse survival post infection” value was “about 3 weeks”, the “% suppression of parasitemia” value was over 99.9% and the “average survival (days) after infection” value is listed as 14.0 days.
